Test results taken from the supplement of paper PMC4862054.

What was measured:
Settings in all cases: incubation time: 72 h
Hs578T [1] = assay: normalised response (% of control), CellTox Green; higher = less cell death (100 = DMSO, 0 = benzethonium chloride kill control)
Method in brief: (§1)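 Two readouts were taken after 72 h: CellTox Green fluorescence (485/520 nm) first, then CellTiter-Glo luminescence after 10 min at room temperature. Breast cancer cell lines had been seeded as 20 µl suspension into 384-well plates holding compound at 5 concentrations in 10-fold steps across a compound-specific 10,000-fold range. Each value is a normalised signal at a single concentration, with plates scaled to 0.1 % DMSO (100) and a positive kill control (0).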

MDA-MB-468 [2] = assay: as above
Method in brief: as §1

MFM-223 [3] = assay: as above
Method in brief: as §1

HCC1937 [4] = assay: as above
Method in brief: as §1

CAL-148 [5] = assay: as above
Method in brief: as §1

MCF-10A [6] = assay: as above
Method in brief: as §1

DU-4475 [7] = assay: as above
Method in brief: as §1

HDQ-P1 [8] = assay: as above
Method in brief: as §1

BT-549 [9] = assay: as above
Method in brief: as §1

CAL-85-1 [10] = assay: as above
Method in brief: as §1

BT-474 [11] = assay: as above
Method in brief: as §1

MDA-MB-436 [12] = assay: as above
Method in brief: as §1

MDA-MB-231 [13] = assay: as above
Method in brief: as §1

HCC1599 [14] = assay: as above
Method in brief: as §1

CAL-120 [15] = assay: as above
Method in brief: as §1

MDA-MB-453 [16] = assay: as above
Method in brief: as §1

CAL-51 [17] = assay: as above
Method in brief: as §1

HCC1143 [18] = assay: normalised response (% of control), CellTiter-Glo; higher = more viable cells (100 = DMSO, 0 = benzethonium chloride kill control)
Method: (§2)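 DSRT, 72 h incubation, CellTox Green / CellTiter-Glo readout. Signal is normalised to DMSO and benzethonium chloride controls. Value is the normalised response at dose 3.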

Hs578T [19] = assay: as above
Method: as §2

MDA-MB-468 [20] = assay: as above
Method: as §2

MFM-223 [21] = assay: as above
Method: as §2

HCC1937 [22] = assay: as above
Method: as §2

CAL-148 [23] = assay: as above
Method: as §2

MCF-10A [24] = assay: as above
Method: as §2

DU-4475 [25] = assay: as above
Method: as §2

SK-BR-3 = assay: as above
Method: as §2

HDQ-P1 [26] = assay: as above
Method: as §2

BT-549 [27] = assay: as above
Method: as §2

CAL-85-1 [28] = assay: as above
Method: as §2

BT-474 [29] = assay: as above
Method: as §2

MDA-MB-436 [30] = assay: as above
Method: as §2

MDA-MB-231 [31] = assay: as above
Method: as §2

HCC1599 [32] = assay: as above
Method: as §2

CAL-120 [33] = assay: as above
Method: as §2

MDA-MB-453 [34] = assay: as above
Method: as §2

CAL-51 [35] = assay: as above
Method: as §2

HCC1143 [36] = assay: normalised response (% of control), CellTox Green; higher = less cell death (100 = DMSO, 0 = benzethonium chloride kill control)
Method in brief: as §1

Row | Compound | normalised response (Hs578T [1]) | normalised response (MDA-MB-468 [2]) | normalised response (MFM-223 [3]) | normalised response (HCC1937 [4]) | normalised response (CAL-148 [5]) | normalised response (MCF-10A [6]) | normalised response (DU-4475 [7]) | normalised response (HDQ-P1 [8]) | normalised response (BT-549 [9]) | normalised response (CAL-85-1 [10]) | normalised response (BT-474 [11]) | normalised response (MDA-MB-436 [12]) | normalised response (MDA-MB-231 [13]) | normalised response (HCC1599 [14]) | normalised response (CAL-120 [15]) | normalised response (MDA-MB-453 [16]) | normalised response (CAL-51 [17]) | normalised response (HCC1143 [18]) | normalised response (Hs578T [19]) | normalised response (MDA-MB-468 [20]) | normalised response (MFM-223 [21]) | normalised response (HCC1937 [22]) | normalised response (CAL-148 [23]) | normalised response (MCF-10A [24]) | normalised response (DU-4475 [25]) | normalised response (SK-BR-3) | normalised response (HDQ-P1 [26]) | normalised response (BT-549 [27]) | normalised response (CAL-85-1 [28]) | normalised response (BT-474 [29]) | normalised response (MDA-MB-436 [30]) | normalised response (MDA-MB-231 [31]) | normalised response (HCC1599 [32]) | normalised response (CAL-120 [33]) | normalised response (MDA-MB-453 [34]) | normalised response (CAL-51 [35]) | normalised response (HCC1143 [36])
1 | CN(C)C/C=C/C(=O)Nc1cc2c(Nc3ccc(F)c(Cl)c3)ncnc2cc1O[C@H]1CCOC1 [Afatinib] (10 nM) | 97.6% | 70.8% | 69% | 113% | 97.5% | 12.3% | 97.6% | 101% | 67.8% | 94.8% | 95.2% | 96.1% | 96.5% | 109% | 95.5% | 82.9% | 109% | 106% | 101% | 98.1% | 104% | 97.6% | 97.9% | 59.3% | 106% | 64.6% | 81.2% | 112% | 97% | 98.9% | 96% | 99.3% | 118% | 94% | 88.6% | 87.7% | –
2 | CN1CC[C@H](c2c(O)cc(O)c3c(=O)cc(-c4ccccc4Cl)oc23)[C@H](O)C1 [Alvocidib] (100 nM) | – | 111% | 106% | 113% | 103% | 91.8% | 96.8% | 92.7% | 101% | 91.1% | 98.4% | 69.6% | 69% | 108% | 97.2% | 106% | 102% | 102% | 103% | 91.9% | 96.9% | 99.2% | 100% | 100% | 94.1% | 87.8% | 86.5% | 95.5% | 104% | 85.8% | 75.9% | 90.8% | 108% | 86.2% | 122% | 81.3% | 114%
3 | Nc1nc(Cl)nc2c1ncn2[C@H]1C[C@H](O)[C@@H](CO)O1 [Cladribine] (10 nM) | – | – | 104% | 88.3% | 80.9% | 102% | 102% | 62.4% | 97.8% | 107% | 100% | – | 109% | 95% | 102% | 58.9% | 106% | 101% | 101% | 102% | 104% | 92.6% | 99.5% | 99.5% | 102% | 108% | 95.8% | 105% | 101% | 99.6% | 102% | 100% | 106% | 102% | 105% | 84.4% | 53.3%
4 | COc1cccc2c1C(=O)c1c(O)c3c(c(O)c1C2=O)C[C@@](O)(C(=O)CO)C[C@@H]3O[C@H]1C[C@H](N)[C@H](O)[C@H](C)O1 [Doxorubicin] (10 nM) | 111% | 91.5% | 107% | 91.2% | 107% | 90% | 101% | 110% | 82.1% | 100% | 98% | 94.8% | – | 118% | 96.7% | 105% | 107% | 109% | 106% | 106% | 108% | 101% | 111% | 98.4% | 104% | 107% | 102% | 103% | 103% | 103% | 92.5% | 104% | 98.8% | 98.1% | 106% | 91.8% | 112%
5 | CC(=O)O[C@]1(C(C)=O)CC[C@H]2[C@@H]3C=C(C)C4=CC(=O)CC[C@]4(C)[C@H]3CC[C@@]21C [Megestrol acetate] (100 nM) | – | 149% | 99.2% | 68.3% | 66.4% | 64.5% | 99.9% | 81.5% | 95.4% | 103% | 101% | 107% | 116% | 83.5% | 103% | 104% | 105% | 95.7% | 106% | 90.4% | 99.1% | 104% | 97.4% | 104% | 99.4% | 94.3% | 95.6% | 109% | 104% | 109% | 101% | 111% | 102% | 96.5% | 86.9% | 109% | 74%
6 | COc1cccc2cc(-c3nc([C@H]4CC[C@H](C(=O)O)CC4)n4ncnc(N)c34)[nH]c12 [OSI-027] (100 nM) | 108% | 77.1% | 105% | 90.9% | 102% | 98.3% | 98.5% | 114% | 93.2% | 95.9% | 99.4% | – | 76.7% | 102% | 97.6% | 101% | 105% | 101% | 95.3% | 92.1% | 91.3% | 98.2% | 100% | 86.7% | 100% | 77.3% | 97% | 98.3% | 96.6% | 94.8% | 92% | 95.3% | 114% | 92.9% | 74.2% | 103% | –
7 | OC[C@H]1O[C@@H](n2cnc3c2N=CNC[C@H]3O)C[C@@H]1O [Pentostatin] (100 nM) | – | 104% | 99.5% | 96.4% | 55.8% | 94.7% | 101% | 77.7% | 99.5% | 106% | 101% | 90.5% | 123% | 100% | 103% | 103% | 102% | 104% | 104% | 96.9% | 100% | 99.4% | 97.8% | 102% | 106% | 100% | 99% | 96.1% | 100% | 93.3% | 96.6% | 106% | 107% | 103% | 101% | 86.6% | 88.7%
8 | N#CC[C@H](C1CCCC1)n1cc(-c2ncnc3[nH]ccc23)cn1 [Ruxolitinib] (100 nM) | 60.9% | 52.5% | 98.4% | 91.7% | 78.4% | 86.5% | 96.2% | 94.4% | 108% | 97.7% | 97.1% | 83.7% | – | 95% | 103% | 99% | 99.5% | 98.2% | 94.4% | 96.6% | 90.5% | 102% | 87.1% | 84.2% | 95.8% | 88.4% | 100% | 103% | 95.1% | 96.6% | 93.8% | 97.9% | 94% | 96.3% | 85.7% | 113% | 96.9%
9 | O=C(c1ccc(C(=O)N2CCC(N3CCCC3)CC2)c(Nc2ccccc2)c1)N1CCC(N2CCCC2)CC1 [UNC1215] (300 nM) | – | 129% | – | 85.9% | 104% | 86.4% | 101% | – | 94.4% | 98.7% | 101% | 65.3% | 90.9% | 93.7% | 101% | 100% | 77.2% | 95% | 98% | 90% | 97.7% | 92.7% | 93.6% | 94.5% | 99.5% | 94% | 97.6% | 96.7% | 99.5% | 98.3% | 99.7% | 99.1% | 93.2% | 96.7% | 104% | 62.6% | 93.9%
